Drawing on PubChem BioAssay AID256 (DTP/NCI, 2004), this text covers T/C for 17 compounds.

SMILES strings stand for the structures. “And” between values parts separate entries of the source, which are not always exact repeats. Equal entries are not always repeated. Inconclusive results and toxic doses are left out.

For the assay, the system named is CD2F1 mice, L1210 leukemia ip, survival T/C. The assay can be described thus: NCI In Vivo Anticancer Drug Screen. Data for tumor model L1210 Leukemia (intraperitoneal) in CD2F1 (CDF1) mice. The following applies: higher = longer survival. Summed up:
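Implant tumor; dose compound or vehicle; measure endpoint in both groups; report treated divided by control.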

The mark [1] stands for this setting: endpoint: mean survival time, dose: 100.0 mg/kg/injection, schedule: Q04DX003 (ip), vehicle: saline with Tween-80.
Where [2] appears, read: endpoint: mean survival time, dose: 200.0 mg/kg/injection, schedule: Q04DX003 (ip), vehicle: saline with Tween-80.
Where [3] appears, read: endpoint: mean survival time, dose: 400.0 mg/kg/injection, schedule: Q04DX003 (ip), vehicle: saline with Tween-80.
The mark [4] stands for this setting: endpoint: mean survival time, dose: 100.0 mg/kg/injection, schedule: Q01DX009 (ip), vehicle: saline with Tween-80.
Setting [5] is: endpoint: mean survival time, dose: 200.0 mg/kg/injection, schedule: Q01DX009 (ip), vehicle: saline with Tween-80.
Where [6] appears, read: endpoint: mean survival time, dose: 400.0 mg/kg/injection, schedule: Q01DX009 (ip), vehicle: saline with Tween-80.

Take `CN=C(NC)c1ccc(NC(=O)/C=C\c2ccc(/C=C/C(=O)Nc3ccc(C(=NC)NC)cc3)cc2)cc1`: the T/C (endpoint: median survival time, dose: 1.5 mg/kg/injection, schedule: Q01DX009 (ip), vehicle: Klucel (hydroxypropylcellulose) (HPC)) is 112 % of control; the T/C (endpoint: median survival time, dose: 3.0 mg/kg/injection, schedule: Q01DX009 (ip), vehicle: Klucel (hydroxypropylcellulose) (HPC)) was 124 % of control; the T/C (endpoint: median survival time, dose: 3.12 mg/kg/injection, schedule: Q01DX009 (ip), vehicle: Klucel (hydroxypropylcellulose) (HPC)) is 151 % of control; the T/C (endpoint: median survival time, dose: 6.0 mg/kg/injection, schedule: Q01DX009 (ip), vehicle: Klucel (hydroxypropylcellulose) (HPC)) was 181 % of control; the T/C (endpoint: median survival time, dose: 6.25 mg/kg/injection, schedule: Q01DX009 (ip), vehicle: Klucel (hydroxypropylcellulose) (HPC)) is 186 % of control; the T/C (endpoint: median survival time, dose: 12.0 mg/kg/injection, schedule: Q01DX009 (ip), vehicle: Klucel (hydroxypropylcellulose) (HPC)) is 124 % of control. Moreover, the T/C (endpoint: median survival time, dose: 12.5 mg/kg/injection, schedule: Q01DX009 (ip), vehicle: Klucel (hydroxypropylcellulose) (HPC)) is 124 % of control.

With `N#CCCOC1CCCCC1`, the T/C runs as follows: under setting [1], 98 % of control; under setting [2], 93 % of control; under setting [3], 93 % of control.

For the compound `C=C(c1ccc(OC)c(OC)c1)c1nccc2cc(OC)c(OC)cc12`, the T/C reads like this: (endpoint: median survival time, dose: 50.0 mg/kg/injection, schedule: Q01DX009 (ip), vehicle: Klucel (hydroxypropylcellulose) (HPC)) 101 % of control; (endpoint: median survival time, dose: 100.0 mg/kg/injection, schedule: Q01DX009 (ip), vehicle: Klucel (hydroxypropylcellulose) (HPC)) 89 % of control; (endpoint: median survival time, dose: 200.0 mg/kg/injection, schedule: Q01DX009 (ip), vehicle: Klucel (hydroxypropylcellulose) (HPC)) 95 % of control; (endpoint: median survival time, dose: 400.0 mg/kg/injection, schedule: Q01DX009 (ip), vehicle: Klucel (hydroxypropylcellulose) (HPC)) 97 % of control; (endpoint: median survival time, dose: 800.0 mg/kg/injection, schedule: Q01DX009 (ip), vehicle: Klucel (hydroxypropylcellulose) (HPC)) 108 % of control.

On to `COS(=O)C(c1ccccc1)C(c1ccccc1)C(O)c1ccccc1` (stereo not drawn), for which the T/C was 90 % of control under setting [4], 90 % of control under setting [5] and 95 % of control under setting [6].

`O=C1c2ccccc2C(=O)n2nc3ccccc3c21`: the T/C is, setting by setting: (endpoint: median survival time, dose: 50.0 mg/kg/injection, schedule: Q04DX002 (ip), vehicle: saline with Tween-80) 100 % of control; (endpoint: median survival time, dose: 100.0 mg/kg/injection, schedule: Q04DX002 (ip), vehicle: saline with Tween-80) 100 % of control; (endpoint: median survival time, dose: 200.0 mg/kg/injection, schedule: Q04DX002 (ip), vehicle: saline with Tween-80) 90 % of control; (endpoint: median survival time, dose: 400.0 mg/kg/injection, schedule: Q04DX002 (ip), vehicle: saline with Tween-80) 100 % of control.

For the compound `N#Cc1ncc(Cl)cc1[N+](=O)[O-]`, the T/C was 101 % of control (endpoint: mean survival time, dose: 12.5 mg/kg/injection, schedule: Q04DX003 (ip), vehicle: saline with Tween-80); 101 % of control (endpoint: mean survival time, dose: 25.0 mg/kg/injection, schedule: Q04DX003 (ip), vehicle: saline with Tween-80); 101 % of control (endpoint: mean survival time, dose: 50.0 mg/kg/injection, schedule: Q04DX003 (ip), vehicle: saline with Tween-80).

As for `CCc1cccc(OS(=O)(=O)c2cccc([N+](=O)[O-])c2)c1`, the T/C under setting [4] is 98 % of control; the T/C under setting [1] is 103 % of control; the T/C under setting [5] is 102 % of control; the T/C under setting [2] was 103 % of control; the T/C under setting [6] is 93 % of control; the T/C under setting [3] is 101 % of control.

Turning to `Brc1ccc(Sc2ccccc2)cc1`, the T/C is, setting by setting: under setting [4], 98 % of control; under setting [5], 93 % of control; under setting [6], 96 % of control.

As for `CC1CC2CC(=O)CCC2(C)C2CCC3(C)C(O)CCC3C12` (stereo not drawn), the T/C (endpoint: mean survival time, dose: 18.75 mg/kg/injection, schedule: Q01DX009 (ip), vehicle: Klucel (hydroxypropylcellulose) (HPC)) was 100 % of control; the T/C (endpoint: mean survival time, dose: 37.5 mg/kg/injection, schedule: Q01DX009 (ip), vehicle: Klucel (hydroxypropylcellulose) (HPC)) was 100 % of control; the T/C (endpoint: mean survival time, dose: 75.0 mg/kg/injection, schedule: Q01DX009 (ip), vehicle: Klucel (hydroxypropylcellulose) (HPC)) is 100 % of control; the T/C (endpoint: mean survival time, dose: 150.0 mg/kg/injection, schedule: Q01DX009 (ip), vehicle: Klucel (hydroxypropylcellulose) (HPC)) is 95 % of control; the T/C (endpoint: mean survival time, dose: 300.0 mg/kg/injection, schedule: Q01DX009 (ip), vehicle: Klucel (hydroxypropylcellulose) (HPC)) is 95 % of control.

Turning to `CCCCCC/C(C)=C(/C#N)C(=O)OC`, the T/C was 94 % of control (endpoint: mean survival time, dose: 75.0 mg/kg/injection, schedule: Q01DX001 (ip), vehicle: saline); 97 % of control (endpoint: mean survival time, dose: 150.0 mg/kg/injection, schedule: Q01DX001 (ip), vehicle: saline); 96 % of control (endpoint: mean survival time, dose: 300.0 mg/kg/injection, schedule: Q01DX001 (ip), vehicle: saline).

On to `OCC(O)COCc1ccccc1` (stereo not drawn), for which the T/C runs as follows: (endpoint: mean survival time, dose: 100.0 mg/kg/injection, schedule: Q01DX009 (ip), vehicle: saline) 94 % of control; (endpoint: mean survival time, dose: 200.0 mg/kg/injection, schedule: Q01DX009 (ip), vehicle: saline) 94 % of control; (endpoint: mean survival time, dose: 400.0 mg/kg/injection, schedule: Q01DX009 (ip), vehicle: saline) 96 % of control.

As to `O=CC(O)C(O)C(O)CO` (stereo not drawn), the T/C is, setting by setting: (endpoint: mean survival time, dose: 100.0 mg/kg/injection, schedule: Q01DX001 (ip), vehicle: saline) 96 % of control; (endpoint: mean survival time, dose: 200.0 mg/kg/injection, schedule: Q01DX001 (ip), vehicle: saline) 93 % of control; (endpoint: mean survival time, dose: 400.0 mg/kg/injection, schedule: Q01DX001 (ip), vehicle: saline) 98 % of control.

In the case of `N=C(N)c1ccc(Nc2ccc(-c3cc4ccc(C(=N)N)cc4[nH]3)cc2)cc1`, the T/C by setting is: (endpoint: median survival time, dose: 3.75 mg/kg/injection, schedule: Q01DX005 (ip), vehicle: saline) 326 % of control; (endpoint: median survival time, dose: 4.5 mg/kg/injection, schedule: Q01DX005 (ip), vehicle: saline) 168 % of control; (endpoint: median survival time, dose: 7.5 mg/kg/injection, schedule: Q01DX005 (ip), vehicle: saline) 182 % of control and 271 % of control; (endpoint: median survival time, dose: 12.49 mg/kg/injection, schedule: Q01DX005 (ip), vehicle: saline) 150 % of control; (endpoint: median survival time, dose: 20.83 mg/kg/injection, schedule: Q01DX005 (ip), vehicle: saline) 101 % of control.

`O=C(O)C1C2CC3C(OC(=O)C31)C2Br` (stereo not drawn): the T/C was 105 % of control (endpoint: mean survival time, dose: 100.0 mg/kg/injection, schedule: Q04DX003 (ip), vehicle: saline); 96 % of control (endpoint: mean survival time, dose: 200.0 mg/kg/injection, schedule: Q04DX003 (ip), vehicle: saline); 102 % of control (endpoint: mean survival time, dose: 400.0 mg/kg/injection, schedule: Q04DX003 (ip), vehicle: saline).

For `C1CCC2[N-]CCCC2C1.C1CCC2[N-]CCCC2C1.[Br][Pt+2][Br]` (stereo not drawn), the T/C reads like this: (endpoint: median survival time, dose: 3.12 mg/kg/injection, schedule: Q04DX003 (ip), vehicle: saline) 105 % of control; (endpoint: median survival time, dose: 6.25 mg/kg/injection, schedule: Q04DX003 (ip), vehicle: saline) 117 % of control; (endpoint: median survival time, dose: 12.5 mg/kg/injection, schedule: Q04DX003 (ip), vehicle: saline) 114 % of control; (endpoint: median survival time, dose: 25.0 mg/kg/injection, schedule: Q04DX003 (ip), vehicle: saline) 103 % of control; (endpoint: median survival time, dose: 50.0 mg/kg/injection, schedule: Q04DX003 (ip), vehicle: saline) 102 % of control; (endpoint: median survival time, dose: 100.0 mg/kg/injection, schedule: Q04DX003 (ip), vehicle: saline) 104 % of control. For the same compound, under “endpoint: median survival time, dose: 200.0 mg/kg/injection, schedule: Q04DX003 (ip), vehicle: saline”, the T/C is 95 % of control.

For the compound `NCCCNCCCCNCCCN`, the T/C is 101 % of control (endpoint: median survival time, dose: 24.75 mg/kg/injection, schedule: Q04DX003 (ip), vehicle: saline) and 107 % of control (endpoint: median survival time, dose: 49.5 mg/kg/injection, schedule: Q04DX003 (ip), vehicle: saline).

Turning to `c1ccc(CNc2nnnc3ccccc23)cc1`, the T/C runs as follows: (endpoint: mean survival time, dose: 100.0 mg/kg/injection, schedule: Q01DX001 (ip), vehicle: saline with Tween-80) 100 % of control; (endpoint: mean survival time, dose: 200.0 mg/kg/injection, schedule: Q01DX001 (ip), vehicle: saline with Tween-80) 88 % of control; (endpoint: mean survival time, dose: 400.0 mg/kg/injection, schedule: Q01DX001 (ip), vehicle: saline with Tween-80) 94 % of control.
